Series [1] is described as follows: Stability of the pure HPDs (dry solid) at 25° C./RH 60%. The note with it: for Purity: pure HPD, 25° C./RH 60%. It counts as physicochemical.
The nature of series [2]: Effect of solvent on the stability of the solution (purity at various pH values and temperature). It counts as physicochemical.
Series [3] in a line: Effect of concentration on the stability of the solution (purity over time). The settings on record: at 5° C. in 15% ethanol.
Series [4] in a line: Effect of temperature (and pH) on the stability of the solution (purity). Format: physicochemical. The note with it: for Stability of the solution at a temperature higher than 40° C. and a pH lower than 3 or greater than 6: 7% solution in water.
[5] abbreviates: pure HPD at 25° C./RH 60%, in % (unit assumed).
[6] abbreviates: 5% solution with 1 equivalent sodium acetate in 25% ethanol, pH 4.49-4.51.

Non-standard residues stand in square brackets, D forms with d. *: point of attachment. Arg(NO2) = N=C(NCCC[C@H](N)C(=O)O)N[N+](=O)[O-]; OiPr = CC(C)O*

On to `Br.CCN(CC)CCOC(=O)[C@H](C)c1ccc(CC(C)C)cc1` (racemic) [C-1-4, 2-(diethylamino)ethyl (R,S)-2-(p-isobutylphenyl)propionate•HBr salt], for which the Purity in series [1] (24 month) stood at 98.0 ± 0.5.

Regarding `CCN(CC)CCOC(=O)c1ccccc1OC(C)=O.Cl` [2-(diethylamino)ethyl acetylsalicylate•HCl], in series [2] (7% solution in water), the “Stability of the solution at a temperature higher than 40° C. and a pH lower than 3 or greater than 6” value is “not stable”. Besides, the “Effect of the solvent on the stability of the solution” value is on record as “did not affect the stability” in series [2] (7% solution, 15% ethanol); “did not affect the stability” in series [2] (7% solution, 25% ethanol); “did not affect the stability” in series [2] (7% solution, 50% ethanol). The “Effect of the amount of ethanol on the stability of the solution” value in series [2] (7% solution, tables 51-54 (water, 15%, 25%, 50% ethanol)) is reported as “did not affect the stability”. In addition, the “Purity at day 0” value in series [3] (0.01 wt %) was 99.1%; in series [3] (0.1 wt %) it was 99.2%; in series [3] (1 wt %), 99.3%; in series [3] (3 wt %), 99.5%; in series [3] (5 wt %) it was 99.5%; in series [3] (7 wt %) it was 99.6%. Also, the “Purity at day 0” value stood at 99.7% in series [3] (8 wt %); 99.6% in series [3] (10 wt %); 99.5% in series [3] (15 wt %); 99.5% in series [3] (20 wt %); 99.5% in series [3] (30 wt %); 99.7% in series [3] (50 wt %). Besides, the “Purity at day 3” value in series [3] (0.01 wt %) was determined as 93.1%; in series [3] (0.1 wt %) it was 95.8%; in series [3] (1 wt %) it was 97.6%; in series [3] (5 wt %) it was 99.3%; in series [3] (7 wt %), 99.4%; in series [3] (8 wt %) it was 99.5%. The “Purity at day 3” value was found to be 99.7% in series [3] (10 wt %); 99.5% in series [3] (15 wt %); 99.6% in series [3] (20 wt %); 99.5% in series [3] (30 wt %); 99.6% in series [3] (50 wt %). Also, the “Purity at day 7” value in series [3] (0.01 wt %) stood at 88.2%; in series [3] (0.1 wt %), 93.1%; in series [3] (1 wt %), 96.9%; in series [3] (5 wt %), 99.1%; in series [3] (7 wt %), 99.3%; in series [3] (8 wt %), 99.3%. Also, the “Purity at day 7” value in series [3] (10 wt %) is 99.4%; in series [3] (15 wt %) it was 99.3%; in series [3] (20 wt %), 99.3%; in series [3] (30 wt %), 99.4%; in series [3] (50 wt %), 99.5%. The “Purity at day 14” value in series [3] (0.01 wt %) is reported as 81.4%; in series [3] (0.1 wt %), 89.5%; in series [3] (1 wt %), 95.2%; in series [3] (3 wt %), 96.4%; in series [3] (7 wt %), 99.1%; in series [3] (8 wt %), 99.3%. Besides, the “Purity at day 14” value in series [3] (10 wt %) is 99.1%; in series [3] (15 wt %), 99.2%; in series [3] (20 wt %), 99.2%; in series [3] (30 wt %) it was 99.4%; in series [3] (50 wt %), 99.3%. Besides, the “Purity at day 21” value in series [3] (0.01 wt %) was 74.9%; in series [3] (0.1 wt %), 86.6%; in series [3] (1 wt %), 93.7%; in series [3] (3 wt %), 94.5%; in series [3] (50 wt %), 99.2%. The “Purity at day 28” value in series [3] (0.01 wt %) was 68.3%; in series [3] (0.1 wt %), 83.7%; in series [3] (1 wt %), 91.5%; in series [3] (3 wt %), 92.7%. For the same compound, the “Purity at day 60” value in series [3] (0.01 wt %) is listed as 47.1%; in series [3] (0.1 wt %) it was 71.8%; in series [3] (1 wt %) it was 82.7%; in series [3] (3 wt %), 86.1%; in series [3] (5 wt %) it was 96.7%. Moreover, the “Purity at day 90” value is 30.1% in series [3] (0.01 wt %); 59.9% in series [3] (0.1 wt %); 74.1% in series [3] (1 wt %); 80.2% in series [3] (3 wt %); 96.1% in series [3] (5 wt %); 97.2% in series [3] (7 wt %). Besides, the “Purity at day 90” value is 97.4% in series [3] (8 wt %); 97.2% in series [3] (10 wt %); 97.3% in series [3] (15 wt %); 97.3% in series [3] (20 wt %); 97.4% in series [3] (30 wt %); 97.4% in series [3] (50 wt %). Moreover, the “Stability when the concentration is 0.1% or lower” value in series [3] is reported as “not stable”.

Regarding `CCN(CC)CCOC(=O)[C@@H](C)c1ccc2cc(OC)ccc2c1.Cl` [A-1-2, 2-(diethylamino)ethyl (S)-2-(6-methoxy-2-naphthyl) propionate•HCl salt], the Purity in series [1] (24 month) is 98.0 ± 0.1; in series [1] (Day 0), 98.6 ± 0.3.

With `CCN(CC)CCOC(=O)[C@H](C)c1ccc2cc(OC)ccc2c1.Cl` [A-1-3, 2-(diethylamino)ethyl (R)-2-(6-methoxy-2-naphthyl) propionate•HCl salt], the Purity in series [1] (18 month) amounted to 98.1 ± 0.2; in series [1] (24 month) it was 97.9 ± 0.2.

Regarding `CCN(CC)CCOC(=O)C(C)c1ccc(-c2ccccc2)c(F)c1.Cl` (centres unmarked) [B-1-1, 2-(diethylamino)ethyl 2-(2-fluoro-4-biphenyl)propionate•HCl salt], the Purity in series [1] (6 month) is recorded as 98.1 ± 0.1; in series [1] (18 month), 98.1 ± 0.1; in series [1] (24 month), 98.0 ± 0.1. Further, the “Stability of the solution at a temperature higher than 40° C. and a pH lower than 3 or greater than 6” value in series [4] was “not stable”.

Turning to `CCN(CC)CCOC(=O)[C@@H](C)c1ccc(-c2ccccc2)c(F)c1.Cl` [B-1-2, 2-(diethylamino)ethyl (S)-2-(2-fluoro-4-biphenyl)propionate•HCl salt], the Purity in series [1] (3 month) stood at 98.6 ± 0.1; in series [1] (Day 0), 98.7 ± 0.2.

As for `CCN(CC)CCOC(=O)[C@H](C)c1ccc(-c2ccccc2)c(F)c1.Cl` [B-1-3, 2-(diethylamino)ethyl (R)-2-(2-fluoro-4-biphenyl)propionate•HCl salt], the Purity in series [1] (18 month) is 98.1 ± 0.2; in series [1] (24 month) it was 98.0 ± 0.1.

As for `Br.CCN(CC)CCOC(=O)C(C)c1ccc(-c2ccccc2)c(F)c1` (centres unmarked) [B-1-4, 2-(diethylamino)ethyl 2-(2-fluoro-4-biphenyl)propionate•HBr salt], the results for the Purity in series [1] (18 month), in series [1] (24 month) and in series [1] (Day 0) were 98.1 ± 0.1, 97.9 ± 0.1 and 98.6 ± 0.2, respectively.

As to `CCN(CC)CCOC(=O)[C@@H](C)c1ccc(CC(C)C)cc1.Cl` [C-1-2, 2-(diethylamino)ethyl (S)-2-(p-isobutylphenyl)propionate•HCl salt], in series [1] (24 month), the Purity stood at 98.0 ± 0.5.

Take `CCN(CC)CCOC(=O)[C@H](C)c1ccc(CC(C)C)cc1.Cl` [C-1-3, 2-(diethylamino)ethyl (R)-2-(p-isobutylphenyl)propionate•HCl salt]: the Purity in series [1] (6 month) is listed as 98.1 ± 0.3; in series [1] (9 month) it was 98.0 ± 0.1; in series [1] (12 month) it was 98.0 ± 0.3; in series [1] (18 month), 97.9 ± 0.3; in series [1] (24 month), 97.8 ± 0.2. Also, in series [4], the “Stability of the solution at a temperature higher than 40° C. and a pH lower than 3 or greater than 6” value is listed as “not stable”.

As to “H-Ala-Pro-Gly-Pro-Arg(NO2)—OCH(CH3)2•HCl (H-APGP[Arg(NO2)]-OiPr; also: HCl salt) [T-2]”, in series [1] (setting [5]), the “Purity at 3 month” value is 98.9 ± 0.3, the “Purity at 6 month” value is recorded as 98.6 ± 0.2, the “Purity at 9 month” value was determined as 98.6 ± 0.3 and the “Purity at 12 month” value was determined as 98.5 ± 0.2. In series [1] (setting [5]), the “Purity at 18 month” value was determined as 98.5 ± 0.2, the “Purity at 24 month” value was determined as 98.4 ± 0.2 and the “Purity at Day 0” value is listed as 98.9 ± 0.1. Moreover, the “Stability of the pure powder” value in series [1] (room temperature (25° C./RH 60%)) is “very stable”. For the same compound, in series [4] (setting [6]), the “Purity (%) at day 30 (60° C.)” value stood at 32.8 ± 0.2%, the “Purity (%) at day 90 (60° C.)” value is reported as 0%, the “Purity (%) at day 180 (60° C.)” value is given as 0% and the “Purity (%) at day 360 (60° C.)” value is 0%. In addition, in series [4] (setting [6]), the “Purity(%) at day 0” value is given as 98.9 ± 0.2%, the “Purity(%) at day 30 (5° C.)” value is 98.8 ± 0.2%, the “Purity(%) at day 30 (25° C.)” value is 97.8 ± 0.3% and the “Purity(%) at day 30 (40° C.)” value is reported as 71.3 ± 0.2%. In addition, in series [4] (setting [6]), the “Purity(%) at day 90 (5° C.)” value is reported as 98.5 ± 0.3%, the “Purity(%) at day 90 (25° C.)” value is 97.0 ± 0.2%, the “Purity(%) at day 90 (40° C.)” value is 33.6 ± 0.2% and the “Purity(%) at day 180 (5° C.)” value was found to be 97.8 ± 0.2%. Also, in series [4] (setting [6]), the “Purity(%) at day 180 (25° C.)” value worked out at 95.2 ± 0.3%, the “Purity(%) at day 180 (40° C.)” value came to 13.6 ± 0.2%, the “Purity(%) at day 360 (5° C.)” value turned out to be 97.4 ± 0.3% and the “Purity(%) at day 360 (25° C.)” value was found to be 92.3 ± 0.3%. Also, the “Purity(%) at day 360 (40° C.)” value in series [4] (setting [6]) stood at 0%.

The values above are taken from patent publication US20230157952A1, “METHOD FOR IMPROVING THE STABILITY OF A PHARMACEUTICAL COMPOSITION COMPRISING A HIGH PENETRATION DRUG, AND THE PHARMACEUTICAL COMPOSITION OBTAINED THEREFROM” (Techfields Inc., priority 2020, published 2023).
